Data as given in US12558428B2, “Heterobifunctional compounds and their use in treating disease” (Halda Therapeutics OpCo, Inc., priority 2024, dated 2026).
Where two headings read alike, the source gives them in different places.

What was measured:
Format in all cases: cell-based
[1] = test system: T-Rex 293 cells lacking increased expression of estrogen receptor alpha protein; assay: Cellular growth inhibition assay, T-Rex 293 cells, (−) doxycycline; conditions: T-REx-293, 72 h, 72 hours
Summary of the method: (§1)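 Growth of a doxycycline-inducible ERα T-Rex 293 clone, induced or not with 3 ng/mL doxycycline, was followed for 72 h with test compound in hormone-depleted medium. CellTiter-Glo luminescence gave GI50.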

[2] = test system: T-Rex 293 cells having increased expression of estrogen receptor alpha protein; assay: Cellular growth inhibition assay, T-Rex 293 cells, (+) doxycycline; conditions: T-REx-293, 72 h, 72 hours
Summary of the method: as §1

[3] = test system: MCF7 cells (ECACC #86012803); assay: Cellular growth inhibition assay, MCF7 cells purchased from ECACC; conditions: Homo sapiens, 144 h; MCF7 cells purchased from ECACC (#86012803); six days treatment; CellTiter-Glo 2.0 viability
Procedure: Exemplary compounds were tested for the ability to inhibit the proliferation of MCF7 cells.
MCF7 cells (ATCC #HTB-22 or ECACC #86012803) were cultured in RPMI 1640 medium supplemented with 10% heat-inactivated fetal bovine serum, 1% pen-strep, and 0.2 U/ml insulin. Cells were seeded in 25 μL of RPMI 1640 medium supplemented with 10% heat-inactivated fetal bovine serum, 1% pen-strep, 0.2 U/ml insulin in poly-D-lysine treated, black clear-bottom 384-well plates at 225 cells/well for MCF7 cells purchased from ECACC or 1,500 cells/well for MCF7 cells purchased from ATCC. Following seeding, plates were spun at 300×g for 30 seconds and cultured at 37° C. with 5% CO2 in a humidified tissue culture incubator.
At 24 hours after seeding, compounds were titrated in 100% DMSO and diluted in RPMI 1640 medium supplemented with 10% heat-inactivate fetal bovine serum, 1% pen-strep, and 0.2 U/ml insulin. A 25 μL aliquot of the compound/media mixture was added to cells, bringing the total volume in each well to 50 μL. An equal volume of DMSO without compound was used as a negative control. After treatment, plates were spun at 300×g for 30 seconds, then cultured at 37° C. with 5% CO2 for six days in a humidified tissue culture incubator.
On Day 6 of treatment, cell viability was quantified with CellTiter-Glo 2.0 reagent (Promega). Plates were equilibrated to room temperature for 30 minutes, then 25 μL of CellTiter-Glo 2.0 reagent was added to cells, bringing the total volume in each well to 75 μL. After reagent was added, plates were mixed on a shaker for two minutes at 500 rpm and then incubated at room temperature for 10 minutes. Following incubation, plates were spun at 3,000×g for 30 seconds, sealed with an optical adhesive cover, and luminescence readings were measured with an EnVision Plate Reader.
Data was normalized to 0 luminescence for baseline. A four-parameter, non-linear regression curve fit was applied to dose-response data in GraphPad Prism data analysis software to determine the half maximal growth inhibitory concentration (GI50) for each compound.

[4] = test system: MCF7 cells (ATCC #HTB-22); assay: Cellular growth inhibition assay, MCF7 cells purchased from ATCC; conditions: Homo sapiens, MCF7, 144 h, Table 8-A; MCF7 cells purchased from ATCC; six days; CellTiter-Glo; read-out: GI50
Summary of the method: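 GI50 values come from a four-parameter fit of CellTiter-Glo 2.0 luminescence after six days of compound exposure at 37° C. Seeding density depended on the source: 225 cells/well for ECACC MCF7, 1,500 for ATCC. Medium was RPMI 1640 with 10% FBS and 0.2 U/ml insulin.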

[5] = Table 7-B, T-Rex 293 cells without doxycycline (lacking increased ERα expression), CellTiter-Glo, read-out: (−) Dox GI50
[6] = Table 7-B, T-Rex 293 cells with doxycycline (increased ERα expression), CellTiter-Glo, read-out: (+) Dox GI50
[7] = Table 7-A, T-Rex 293 cells without doxycycline (lacking increased ERα expression), CellTiter-Glo, read-out: (−) Dox GI50
[8] = Table 7-A, T-Rex 293 cells with doxycycline (increased ERα expression), CellTiter-Glo, read-out: (+) Dox GI50

Row | GI50 [3] [nM] | GI50 [4] [nM] | SMILES | GI50 [1, 5] [nM] | GI50 [2, 6] [nM] | GI50 ([1]; T-Rex 293 cells without doxycycline, CellTiter-Glo 2.0, read-out: (−) Dox TRex ERa (GI50)) [nM] | GI50 ([2]; T-Rex 293 cells with doxycycline-induced ERα expression, CellTiter-Glo 2.0, read-out: (+) Dox TRex ERa (GI50)) [nM] | GI50 [1, 7] [nM] | GI50 [2, 8] [nM]
1 | 500 to 2500 | – | COc1cc(N2CCN(CC3(O)CCN(c4ccc(C5=N[C@@H](C)c6nnc(C)n6-c6sc(C)c(C)c65)cc4)CC3)CC2)ccc1[C@H]1c2ccc(O)cc2CC[C@H]1c1ccc(C(F)(F)F)cc1 [III-348] | 500 to 2500 | 500 to 2500 | – | – | – | –
2 | < 50 | – | COc1cc(N2CCN(CC3(O)CCN(c4ccc(C5=N[C@@H](C)c6nnc(C)n6-c6sc(C)c(C)c65)cc4)CC3)CC2)c(F)cc1C1=C(c2ccccc2F)CCCc2cc(C(=O)O)ccc21 [IV-68] | 500 to 2500 | < 50 | – | – | – | –
3 | 50 to 500 | – | COc1cc(N2CCN(CC3(O)CCN(c4ccc(C5=N[C@@H](C)c6nnc(C)n6-c6sc(C)c(C)c65)c(F)c4)CC3)CC2)ccc1[C@H]1c2ccc(O)cc2CC[C@H]1c1ccc(C(F)(F)F)cc1 [III-354] | 500 to 2500 | 50 to 500 | – | – | – | –
4 | < 50 | – | COc1cc(N2CCC(O)(CN3CCN(c4cc(F)c([C@@H]5c6ccc(O)cc6CC[C@@H]5c5ccc(F)cc5)c(F)c4)CC3)CC2)ccc1C1=N[C@@H](C)c2nnc(C)n2-c2sc(C)c(C)c21 [III-358] | 500 to 2500 | < 50 | – | – | – | –
5 | 50 to 500 | – | COc1cc(N2CCC(O)(CN3CCN(c4ccc([C@H]5c6ccc(O)cc6CC[C@H]5c5ccc(F)cc5)cc4F)CC3)CC2)ccc1C1=N[C@@H](C)c2nnc(C)n2-c2sc(C)c(C)c21 [III-353] | 500 to 2500 | 50 to 500 | – | – | – | –
6 | 50 to 500 | – | COc1cc(N2CCC(O)(CN3CCN(c4cc(F)c([C@@H]5c6ccc(O)cc6CC[C@@H]5c5ccccc5)cc4F)CC3)CC2)ccc1C1=N[C@@H](C)c2nnc(C)n2-c2sc(C)c(C)c21 [III-356] | 500 to 2500 | < 50 | – | – | – | –
7 | < 50 | – | COc1cc(N2CCN(CC3(O)CCN(c4ccc(C5=N[C@@H](C)c6nnc(C)n6-c6sc(C)c(C)c65)c(F)c4)CC3)CC2)ccc1[C@@H]1c2ccc(O)cc2CC[C@@H]1c1ccc(C(F)(F)F)cc1 [III-355] | 500 to 2500 | < 50 | – | – | – | –
8 | < 50 | – | COc1cc(N2CCN(CC3CCN(c4ccc(C5=N[C@@H](C)c6nnc(C)n6-c6sc(C)c(C)c65)c(F)c4)CC3)CC2)ccc1[C@@H]1c2ccc(O)cc2CC[C@@H]1c1ccc(C(F)(F)F)cc1 [III-351] | > 2500 | < 50 | – | – | – | –
9 | < 50 | – | COc1cc(C2CCN(CC3CCC4(CC3)CN(c3ccc(C5=N[C@@H](C)c6nnc(C)n6-c6sc(C)c(C)c65)cc3)C4)CC2)ccc1C1=C(c2ccccc2Cl)CCCc2cc(C(=O)O)ccc21 [IV-71] | 500 to 2500 | < 50 | – | – | – | –
10 | < 50 | – | COc1cc(N2CCC(O)(CN3CCN(c4ccc([C@H]5c6ccc(O)cc6CC[C@@H]5c5ccc(F)cc5)cc4F)CC3)CC2)ccc1C1=N[C@@H](C)c2nnc(C)n2-c2sc(C)c(C)c21 [III-352] | 500 to 2500 | < 50 | – | – | – | –
11 | 50 to 500 | – | COc1cc(N2CCN(CC3CCN(c4ccc(C5=N[C@@H](C)c6nnc(C)n6-c6sc(C)c(C)c65)c(F)c4)CC3)CC2)ccc1[C@H]1c2ccc(O)cc2CC[C@H]1c1ccc(C(F)(F)F)cc1 [III-350] | > 2500 | > 2500 | – | – | – | –
12 | < 50 | – | COc1cc(N2CCN(CC3(O)CCN(c4ccc(C5=N[C@@H](C)c6nnc(C)n6-c6sc(C)c(C)c65)cc4)CC3)CC2)ccc1C1=C(c2ccccc2)CCCc2cc(C(=O)O)ccc21 [IV-66] | 500 to 2500 | < 50 | – | – | – | –
13 | – | < 50 | Cn1cc(-c2cc(C(C)(C)O)ccc2Oc2ccc(C#CC3CC4(CCN(CCOc5ccc(C(=O)c6c(-c7ccc(O)cc7)sc7cc(O)ccc67)cc5)CC4)C3)cc2)c2cc[nH]c2c1=O [I-31, 4-(2-(4-((7-(2-(4-(6-hydroxy-2-(4-hydroxyphenyl)benzo [b]thiophene-3-carbonyl)phenoxy)ethyl)-7-azaspiro[3.5]nonan-2-yl)ethynyl)phenoxy)-5-(2-hydroxypropan-2-yl)phenyl)-6-methyl-1,6-dihydro-7H-pyrrolo[2,3-c]pyridin-7-one] | – | – | 50 to 500 | < 50 | – | –
14 | – | 50 to 500 | Cc1sc2c(c1C)C(c1ccc(N3CCC(O)(CN4CCN(c5cc(F)c([C@@H]6c7ccc(O)cc7CC[C@@H]6c6ccccc6)c(F)c5)CC4)CC3)cc1)=N[C@H](Cc1ncco1)c1nnc(C)n1-2 [III-197] | – | – | – | – | 50 to 500 | < 50
15 | – | < 50 | Cc1sc2c(c1C)C(c1ccc(N3CC(CN4CCN(C(=O)C5CN(c6ccc([C@@H]7c8ccc(O)cc8CC[C@@H]7c7ccccc7)cc6)C5)CC4)C3)cc1)=N[C@@H](Cc1ncco1)c1nnc(C)n1-2 [III-179] | – | – | – | – | < 50 | < 50
16 | – | 50 to 500 | Cc1sc2c(c1C)C(c1ccc(N3CCC(O)(CN4CCN(c5ccc(C6=C(c7ccc(Cl)cc7Cl)CCCc7cc(O)ccc76)cc5)CC4)CC3)cc1)=N[C@@H](C)c1nnc(C)n1-2 [IV-19] | – | – | – | – | 500 to 2500 | < 50
17 | – | < 50 | Cc1sc2c(c1C)C(c1ccc(N3CCN(CC4CCN(c5ccc(C6=C(c7ccc(Cl)cc7Cl)CCCc7cc(C(=O)O)ccc76)cc5)CC4)CC3)cc1)=N[C@@H](Cc1ncco1)c1nnc(C)n1-2 [IV-4] | – | – | – | – | 500 to 2500 | 50 to 500
18 | – | 50 to 500 | Cc1sc2c(c1C)C(c1ccc(N3CCC(O)(CN4CCN(c5ccc([C@H]6c7ccc(O)cc7CC[C@H]6c6ccc(F)cc6F)cc5)CC4)CC3)cc1)=N[C@@H](Cc1ncco1)c1nnc(C)n1-2 [III-258] | – | – | – | – | 50 to 500 | 50 to 500
19 | – | < 50 | Cc1sc2c(c1C)C(c1ccc(N3CCC(CN4CCN(c5ccc(C6=C(c7ccc(Cl)cc7Cl)CCCc7cc(C(=O)O)ccc76)cc5)CC4)CC3)cc1)=N[C@@H](Cc1ncco1)c1nnc(C)n1-2 [IV-14] | – | – | – | – | 500 to 2500 | < 50
20 | – | 50 to 500 | CC1=C(c2c(F)cc(F)cc2F)[C@H](c2ccc(OCC(=O)N3CCCC4(CCN(c5ccc(C6=N[C@@H](Cc7ncco7)c7nnc(C)n7-c7sc(C)c(C)c76)cc5)C4)C3)cc2)Oc2ccc(O)cc21 (stereo partly drawn) [V-33] | – | – | – | – | 50 to 500 | < 50
21 | – | < 50 | Cc1sc2c(c1C)C(c1ccc(N3CCC(O)(CN4CCN(c5ccc(C6=C(c7ccccc7)CCCc7cc(C(=O)O)ccc76)cc5)CC4)CC3)cc1)=N[C@@H](C)c1nnc(C)n1-2 [IV-16] | – | – | – | – | 500 to 2500 | < 50
22 | – | 50 to 500 | Cc1sc2c(c1C)C(c1ccc(N3CCC(O)(CN4CCN(c5ccc([C@H]6c7ccc(O)cc7CC[C@H]6c6ccc(F)cc6)cc5)CC4)CC3)cc1)=N[C@@H](Cc1ncco1)c1nnc(C)n1-2 [III-209] | – | – | – | – | 50 to 500 | < 50
23 | – | 50 to 500 | Cc1sc2c(c1C)C(c1ccc(N3CCC(O)(CN4CCN(c5ccc([C@H]6c7ccc(O)cc7CC[C@H]6c6ccccc6)nn5)CC4)CC3)cc1)=N[C@@H](C)c1nnc(C)n1-2 [III-218] | – | – | – | – | 50 to 500 | < 50
24 | – | 50 to 500 | COc1cc([C@H]2c3ccc(O)cc3CC[C@H]2c2ccc(F)cc2)ccc1N1CCN(CC2(O)CCN(c3ccc(C4=N[C@@H](C)c5nnc(C)n5-c5sc(C)c(C)c54)cc3)CC2)CC1 [III-254] | – | – | – | – | 500 to 2500 | < 50
25 | – | < 50 | COc1cc(N2CCN(CC3(O)CCN(c4ccc(C5=N[C@@H](C)c6nnc(C)n6-c6sc(C)c(C)c65)cc4)CC3)CC2)ccc1[C@@H]1c2ccc(O)cc2CC[C@@H]1c1ccc(F)cc1 (single isomer, unassigned) [III-276] | – | – | – | – | 500 to 2500 | < 50
